Patent publication EP2951180B1, “2,6,7,8 SUBSTITUTED PURINES AS HDM2 INHIBITORS” (Merck Sharp & Dohme Corp., priority 2013, dated 2014)
Read-outs that look alike come from different tables or passages of the source.

Biological target: T1, HDM2 (Homo sapiens, UniProt Q00987)
T1 construct: Thioredoxin (N); made in house; host or cells: E. coli strain BL21(DE3)Rosetta
Assay: HDM2 FRET assay (inhibition of binding of FITC labeled p53-pocket peptide to HDM2)
Conditions: read-out: FRET IC50
Method in brief: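 Final: 0.5 nM His-HDM2, 3 nM FITC peptide, 0.25 nM Tb anti-His Ab; PBS, 0.01% BSA, 0.01% Tween-20; 0.1% DMSO.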

[1] = 0.5 nM HDM2 (residues 17 to 125), 3nM peptide, two hour incubation at room temperature

T1 sequence (Q00987 17-125): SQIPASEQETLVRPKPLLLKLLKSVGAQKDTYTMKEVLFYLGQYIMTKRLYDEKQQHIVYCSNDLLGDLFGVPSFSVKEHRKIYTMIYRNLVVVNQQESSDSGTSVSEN

Molecule `COCC(c1ccccc1)c1nc2nc(-c3noc(=O)[nH]3)nc(N[C@H](C)C3CCC3)c2n1C[C@H]1CC[C@H](C)CC1` (single isomer, unassigned) [Example 21.42, 3-(6-{[(1R)-1-cyclobutylethyl]amino}-8-[(1S or R)-2-methoxy-1-phenylethyl]-7-[(trans-4-methylcyclohexyl)methyl]-7H-purin-2-yl)-1,2,4-oxadiazol-5(4H)-one] has an IC50 (Table 21) of 3.41 nM.
`Cc1cccc(-c2nc3nc(C(=O)O)nc(NC(C)C(C)C)c3n2Cc2ccc(C(F)(F)F)cc2)c1` (centres unmarked) [Example 6.73, 6-[(1,2-dimethylpropyl)amino]-8-(3-methylphenyl)-7-[4-(trifluoromethyl)benzyl]-7H-purine-2-carboxylic acid] was tested, and the IC50 (Table 6) was 437 nM.
With `C[C@@H](Nc1nc(-c2noc(=O)[nH]2)nc2nc(N(C)Cc3cncs3)n(C[C@H]3CC[C@H](C)CC3)c12)C1CCC1` [Example 11.73, 3-(6-{[(1R)-1-cyclobutylethyl]amino}-7-[(trans-4-methylcyclohexyl)methyl]-8-[methyl(1,3-thiazol-5-ylmethyl)amino]-7H-purin-2-yl)-1,2,4-oxadiazol-5(2H)-one] the IC50 (Table 11) was 11.5 nM.
Molecule `CC1CCCN1c1nc2nc(-c3noc(=O)[nH]3)nc(N[C@H](C)C3CCC3)c2n1C[C@H]1CC[C@H](C)CC1` (stereo partly drawn) [Example 11.34, 3-[6-{[(1R)-1-cyclobutylethyl]amino}-7-[(trans-4-methylcyclohexyl)methyl]-8-(2-methylpyrrolidin-1-yl)-7H-purin-2-yl]-1,2,4-oxadiazol-5(2H)-one] has an IC50 (Table 11) of 25.4 nM.
Molecule `Cc1cccc(-c2nc3nc(C(=O)O)nc(NCCc4ccccc4)c3n2Cc2ccc(C(F)(F)F)cc2)c1` [Example 6.25, 8-(3-methylphenyl)-6-[(2-phenylethyl)amino]-7-[4-(trifluoromethyl)benzyl]-7H-purine-2-carboxylic acid] has an IC50 (Table 6) of 5080 nM.
In the case of `C[C@@H](Nc1nc(-c2noc(=O)[nH]2)nc2nc(C3(c4ccccc4F)CC3)n(C[C@H]3CC[C@H](C)CC3)c12)C1CCC1` [Example 22.5, 3-(6-{[(1R)-1-cyclobutylethyl]amino}-8-[1-(2-fluorophenyl)cyclopropyl]-7-[(trans-4-methylcyclohexyl)methyl]-7H-purin-2-yl)-1,2,4-oxadiazol-5(4H)-one], the IC50 (Table 22) is reported as 3.57 nM.
Work on `CC1CS(=O)(=O)CCN1c1nc2nc(-c3noc(=O)[nH]3)nc(N[C@H](C)C3CCC3)c2n1C[C@H]1CC[C@H](C)CC1` (stereo partly drawn) [Example 11.124, 3-[6-{[(1R)-1-cyclobutylethyl]amino}-7-[(trans-4-methylcyclohexyl)methyl]-8-(3-methyl-1,1-dioxidothiomorpholin-4-yl)-7H-purin-2-yl]-1,2,4-oxadiazol-5(2H)-one] yielded an IC50 (Table 11) of 9.62 nM.
`CC(=O)N1CCN(c2nc3nc(C(N)=O)nc(N[C@H](C)C4CCC4)c3n2C[C@H]2CC[C@H](C)CC2)[C@H](c2ccccc2)C1` [Example 17.11, 8-[(2R)-4-acetyl-2-phenylpiperazin-1-yl]-6-{[(1R)-1-cyclobutylethyl]amino}-7-[(trans-4-methylcyclohexyl)methyl]-7H-purine-2-carboxamide] showed an IC50 (Table 17.2) of 6.33 nM.
For `C[C@H]1CC[C@H](Cn2c(N3CCOC[C@H]3c3ccccc3)nc3nc(-c4noc(=O)[nH]4)nc(C4CCCCC4)c32)CC1` [Example 16.165, 3-{6-cyclohexyl-7-[(trans-4-methylcyclohexyl)methyl]-8-[(3R)-3-phenylmorpholin-4-yl]-7H-purin-2-yl}-1,2,4-oxadiazol-5(4H)-one], the IC50 [1] was 5.08 nM.
`COC1(c2nc3nc(-c4n[nH]c(=O)o4)nc(-c4cncc(Cl)c4)c3n2C[C@H]2CC[C@H](C)CC2)CCCCC1` [Example 23.76, 5-{6-(5-chloropyridin-3-yl)-8-(1-methoxycyclohexyl)-7-[(trans-4-methylcyclohexyl)methyl] -7H-purin-2-yl}-1,3,4-oxadiazol-2(3H)-one] was tested, and the IC50 (Table 23) was 14.1 nM.
`CC([C@H]1CC[C@H](C)CC1)n1c(N2CCOC[C@H]2C)nc2nc(-c3n[nH]c(=O)o3)nc(-c3cccc(Cl)c3)c21` (single isomer, unassigned) [Example 18.35] gave an IC50 (Table 18) of 5.04 nM.
For `Cc1nc(C2(c3nc4nc(-c5noc(=O)[nH]5)nc(N[C@H](C)C5CCC5)c4n3C[C@H]3CC[C@H](C)CC3)CC2)c(C)s1` [Example 22.72, 3-(6-{[(1R)-1-cyclobutylethyl]amino}-8-[1-(2,5-dimethyl-1,3-thiazol-4-yl)cyclopropyl]-7-[(trans-4-methylcyclohexyl)methyl] -7H-purin-2-yl)-1,2,4-oxadiazol-5(4H)-one], the IC50 (Table 22) was 3.04 nM.
For `COCC1CCCCN1c1nc2nc(-c3noc(=O)[nH]3)nc(N[C@H](C)C3CCC3)c2n1C[C@H]1CC[C@H](C)CC1` (stereo partly drawn) [Example 11.39, 3-(6-{[(1R)-1-cyclobutylethyl]amino}-8-[2-(methoxymethyl)piperidin-1-yl]-7-[(trans-4-methylcyclohexyl)methyl]-7H-purin-2-yl)-1,2,4-oxadiazol-5(2H)-one], the IC50 (Table 11) was 9.71 nM.
Work on `C[C@H]1CC[C@H](Cn2c(N3CCOC[C@H]3c3ccccc3)nc3nc(-c4noc(=O)[nH]4)nc(-c4cncc(Cl)c4)c32)CC1` [Example 16.26, 3-{6-(5-chloropyridin-3-yl)-7-[(trans-4-methylcyclohexyl)methyl]-8-[(3R)-3-phenylmorpholin-4-yl]-7H-purin-2-yl}-1,2,4-oxadiazol-5(4H)-one] yielded an IC50 [1] of 0.517 nM.
With `C[C@@H](Nc1nc(-c2noc(=O)[nH]2)nc2nc(C(O)C3CCCC3)n(C[C@H]3CC[C@H](C)CC3)c12)C1CCC1` (stereo partly drawn) [Example 22.47, 3-(6-{[(1R)-1-cyclobutylethyl]amino}-8-[cyclopentyl(hydroxy)methyl]-7-[(trans-4-methylcyclohexyl)methyl] -7H-purin-2-yl)-1,2,4-oxadiazol-5(4H)-one] the IC50 (Table 22) was 5.04 nM.
Molecule `CC([C@H]1CC[C@H](C)CC1)n1c(N2CCC[C@H]2CF)nc2nc(-c3n[nH]c(=O)o3)nc(-c3cncc(Cl)c3)c21` (single isomer, unassigned) [Example 18.48] has an IC50 (Table 18) of 8.12 nM.
In the case of `CC(Nc1nc2nc(-c3noc(=O)[nH]3)nc(N[C@H](C)C3CCC3)c2n1C[C@H]1CC[C@H](C)CC1)c1ccncn1` (stereo partly drawn) [Example 11.89, 3-(6-{[(1R)-1-cyclobutylethyl]amino}-7-[(trans-4-methylcyclohexyl)methyl]-8-[(1-pyrimidin-4-ylethyl)amino]-7H-purin-2-yl)-1,2,4-oxadiazol-5(2H)-one], the IC50 (Table 11) is reported as 13.8 nM.
`C[C@@H](Nc1nc(C(=O)O)nc2nc(N3CCCCC3c3ccccn3)n(Cc3ccc(C(F)(F)F)cc3)c12)C1CCC1` (stereo partly drawn) [Example 9.53, 6-{[(1R)-1-cyclobutylethyl]amino}-8-(2-pyridin-2-ylpiperidin-1-yl)-7-[4-(trifluoromethyl)benzyl]-7H-purine-2-carboxylic acid] gave an IC50 (Table 9) of 26.4 nM.
With `C[C@@H](Nc1nc(C(=O)O)nc2nc(N(CC3CC3)[C@@H](C)c3ccccc3)n(Cc3ccc(C(F)(F)F)cc3)c12)C1CCC1` [Example 10.29, 6-(((R)-1-Cyclobutylethyl)amino)-8-((cyclopropylmethyl)((S)-1-phenylethyl)amino)-7-(4-(trifluoromethyl)benzyl)-7H-purine-2-carboxylic acid] the IC50 (Table 10) was 35.3 nM.
For `C[C@@H]1OCCN(c2nc3nc(-c4noc(=O)[nH]4)nc(N[C@H](C)C4CCC4)c3n2C[C@H]2CC[C@H](C)CC2)[C@@H]1c1ccccc1` [Example 11.163, 3-(6-{[(1R)-1-cyclobutylethyl]amino}-7-[(trans-4-methylcyclohexyl)methyl]-8-[(2S,3R)-2-methyl-3-phenylmorpholin-4-yl]-7H-purin-2-yl)-1,2,4-oxadiazol-5(4H)-one], the IC50 (Table 11) was 21.2 nM.
